Holding throughout (type): cell-based
Assay [1] has as its system Staphylococcus aureus MSQS (methicillin sensitive and quinolone sensitive). Put plainly: MIC by agar dilution, Staphylococcus aureus MSQS. The settings on record: 10^4 CFU/spot, 37° C., 24 hours. The protocol: (§1) The following results were obtained on a standard in-vitro test system. The activity is described in terms of the minimum inhibitory concentration (MIC) determined by the agar-dilution technique with an inoculum size of 10^4 CFU/spot. Typically, compounds are active in the range 0.01 to 256 μg/ml.
(§2) Staphylococci were tested on agar, using an inoculum of 10^4 CFU/spot and an incubation temperature of 37° C. for 24 hours—standard test conditions for the expression of methicillin resistance.
Background: In agar dilution, organisms are placed on agar that contains the substance at set levels.

Assay [2] relates to Staphylococcus aureus MRQR (methicillin resistant and quinolone resistant). Nature of the assay: MIC by agar dilution, Staphylococcus aureus MRQR. The settings on record: 10^4 CFU/spot, 37° C., 24 hours. The protocol:
as §1, §2

Assay [3] deals with Streptococcus pneumoniae. Put plainly: MIC by agar dilution, Streptococcus pneumoniae. The settings on record: agar with 5% defibrinated horse blood, 10^4 CFU/spot, 37° C., 5% carbon dioxide, 48 hours. The procedure: as §1
(§3) Streptococci and enterococci were tested on agar supplemented with 5% defibrinated horse blood, an inoculum of 10^4 CFU/spot and an incubation temperature of 37° C. in an atmosphere of 5% carbon dioxide for 48 hours—blood is required for the growth of some of the test organisms. Fastidious Gram negative organisms were tested in Mueller-Hinton broth supplemented with hemin and NAD, grown aerobically for 24 hours at 37° C., and with an innoculum of 5×10^4 CFU/well.

The test system of assay [4] is Linezolid Resistant Streptococcus pneumoniae. Put plainly: MIC by agar dilution, Linezolid Resistant Streptococcus pneumoniae. The note with it: agar with 5% defibrinated horse blood, 10^4 CFU/spot, 37° C., 5% carbon dioxide, 48 hours. The procedure: as §1, §3
The subject of assay [5] is Haemophilus influenzae. Nature of the assay: MIC, Haemophilus influenzae (fastidious Gram negative, Mueller-Hinton broth). The note with it: Mueller-Hinton broth with hemin and NAD, 24 hours, 37° C., 5×10^4 CFU/well. The procedure: as §1, §3
Assay [6] deals with Moraxella catarrhalis. Put plainly: MIC, Moraxella catarrhalis (fastidious Gram negative, Mueller-Hinton broth). The note with it: Mueller-Hinton broth with hemin and NAD, 24 hours, 37° C., 5×10^4 CFU/well. The procedure: as §1, §3
In assay [7] the test system is Enterococcus faecium. Put plainly: MIC by agar dilution, Enterococcus faecium. The note with it: agar with 5% defibrinated horse blood, 10^4 CFU/spot, 37° C., 5% carbon dioxide, 48 hours. The procedure: as §1, §3

Converted amounts (≈) assume the structure as drawn. A value given as a limit tells only on which side of the number the result lay.

In patent US7498350B2, “Oxazolidinones as antibacterial agents” (AstraZeneca AB, priority 2002, dated 2009) one finds MIC data, which are given here for 1 compound.

In the case of `Cn1nnc(-c2ccc(-c3ccc(N4C[C@H](Cn5ccnn5)OC4=O)cc3F)cn2)n1` [Example 1, (5R)-3-(3-Fluoro-4-(6-(2-methyl-2H-tetrazol-5-yl)pyrid-3-yl)phenyl)-5-(1H-1,2,3-triazol-1-ylmethyl)-1,3-oxazolidin-2-one], the MIC in assay [1] is 0.25 µg/mL (≈ 0.593 µM); in assay [2], 0.25 µg/mL (≈ 0.593 µM); in assay [3], below 0.06 µg/mL; in assay [4], 0.5 µg/mL (≈ 1.19 µM); in assay [5] it was 2 µg/mL (≈ 4.75 µM); in assay [6] it was 0.25 µg/mL (≈ 0.593 µM). The same compound gave an MIC in assay [7] of 0.25 µg/mL (≈ 0.593 µM).
